From ChEMBL document CHEMBL4196088, “Induction of cell killing and autophagy by amphiphilic pyrrolidine derivatives on human pancreatic cancer cells” (Eur J Med Chem, 2018)
Calls of active or inactive are those of the source. No cut-off for these calls is given here.

Tests used:
[1] = test system: SK-BR-3; assay: Growth inhibition of human SKBR3 cells after 72 hrs; format: functional, cell-based; settings: SK-BR-3, 72 h
[2] = test system: NCI-H460; assay: Growth inhibition of human NCI-H460 cells after 72 hrs; format: functional, cell-based; settings: NCI-H460, 72 h
[3] = test system: ACHN; assay: Growth inhibition of human ACHN cells after 72 hrs; format: functional, cell-based
[4] = test system: HeLa; assay: Growth inhibition of human HeLa cells after 72 hrs; format: functional, cell-based
[5] = test system: Jurkat; assay: Growth inhibition of human Jurkat cells after 72 hrs; format: functional, cell-based
[6] = test system: BXPC-3; assay: Induction of apoptosis in human BxPC3 cells assessed as accumulation at sub-G0/G1 phase harboring pSFFV-Bcl-XL at 20 uM after 24 hrs by propidium iodide staining based flow cytometry (reference value: 1.2%); format: functional
[7] = test system: PANC-1; assay: Induction of apoptosis in human PANC1 cells assessed as accumulation at sub-G0/G1 phase at 20 uM after 48 hrs by propidium iodide staining based flow cytometry (reference value: 0.2 to 2.9%); format: functional
[8] = test system: PK9; assay: Induction of apoptosis in human PK9 cells assessed as accumulation at sub-G0/G1 phase at 20 uM after 72 hrs by propidium iodide staining based flow cytometry (reference value: 4%); format: functional
[9] = Induction of apoptosis in HPNE cells assessed as accumulation at sub-G0/G1 phase at 20 uM after 72 hrs by propidium iodide staining based flow cytometry (reference value: 6.6%); format: cell-based; settings: human
[10] = test system: BXPC-3; assay: Induction of apoptosis in human BxPC3 cells assessed as accumulation at sub-G0/G1 phase at 20 uM by propidium iodide staining based flow cytometry; format: functional, cell-based; settings: TDE = time-dependent effect
[11] = test system: PANC-1; assay: Induction of apoptosis in human PANC1 cells assessed as accumulation at sub-G0/G1 phase at 10 uM after 24 hrs by propidium iodide staining based flow cytometry (reference value: 0.6 to 0.7%); format: functional
[12] = test system: PANC-1; assay: Induction of apoptosis in human PANC1 cells assessed as accumulation at sub-G0/G1 phase at 10 uM after 48 hrs by propidium iodide staining based flow cytometry (reference value: 0.2 to 2.9%); format: functional
[13] = test system: BXPC-3; assay: Induction of apoptosis in human BxPC3 cells harboring pSFFV-Bcl-XL assessed as accumulation at sub-G0/G1 phase at 20 uM by propidium iodide staining based flow cytometry; format: functional, cell-based; settings: TDE = time-dependent effect
[14] = test system: PANC-1; assay: Induction of apoptosis in human PANC1 cells assessed as accumulation at sub-G0/G1 phase at 20 uM by propidium iodide staining based flow cytometry; format: functional, cell-based; settings: TDE = time-dependent effect
[15] = test system: BXPC-3; assay: Induction of apoptosis in human BxPC3 cells assessed as accumulation at sub-G0/G1 phase at 10 uM after 72 hrs by propidium iodide staining based flow cytometry (reference value: 3.4%); format: functional
[16] = test system: BXPC-3; assay: Induction of apoptosis in human BxPC3 cells harboring pSFFV-Bcl-XL assessed as accumulation at sub-G0/G1 phase at 10 uM after 72 hrs by propidium iodide staining based flow cytometry (reference value: 2%); format: functional
[17] = test system: PK9; assay: Induction of apoptosis in human PK9 cells assessed as accumulation at sub-G0/G1 phase at 10 uM after 48 hrs by propidium iodide staining based flow cytometry (reference value: 3.8%); format: functional
[18] = test system: Fibroblast; assay: Induction of apoptosis in human primary fibroblasts assessed as accumulation at sub-G0/G1 phase at 10 uM after 24 hrs by propidium iodide staining based flow cytometry (reference value: 4.8%); format: cell-based
[19] = test system: Fibroblast; assay: Induction of apoptosis in human primary fibroblasts assessed as accumulation at sub-G0/G1 phase at 10 uM after 48 hrs by propidium iodide staining based flow cytometry (reference value: 6.1%); format: cell-based
[20] = test system: Fibroblast; assay: Induction of apoptosis in human primary fibroblasts assessed as accumulation at sub-G0/G1 phase at 10 uM after 72 hrs by propidium iodide staining based flow cytometry (reference value: 6.7%); format: cell-based
[21] = Induction of apoptosis in HPNE cells assessed as accumulation at sub-G0/G1 phase at 10 uM after 24 hrs by propidium iodide staining based flow cytometry (reference value: 0.6%); format: cell-based; settings: human
[22] = test system: MIA PaCa-2; assay: Induction of apoptosis in human MIAPaCa2 cells assessed as live cells at 20 uM after 48 hrs by Annexin V-FITC/propidium iodide staining based flow cytometry (reference value: 86.79%); format: functional
[23] = test system: MIA PaCa-2; assay: Induction of apoptosis in human MIAPaCa2 cells assessed as late apoptotic cells at 20 uM after 48 hrs by Annexin V-FITC/propidium iodide staining based flow cytometry (reference value: 7.4%); format: functional
[24] = test system: MIA PaCa-2; assay: Induction of apoptosis in human MIAPaCa2 cells assessed as increase in cleaved PARP protein expression at 20 uM after 15 to 48 hrs by Western blot analysis; format: functional, cell-based
[25] = test system: BXPC-3; assay: Induction of apoptosis in human BxPC3 cells assessed as accumulation at sub-G0/G1 phase at 20 uM after 24 to 48 hrs in presence of caspase inhibitor zVAD-fmk by propidium iodide staining based flow cytometry; format: functional, cell-based
[26] = test system: BXPC-3; assay: Induction of autophagy in human BxPC3 cells assessed as increase in LC3-2 protein expression at 20 uM after 15 to 48 hrs by Western blot analysis; format: functional, cell-based
[27] = test system: BXPC-3; assay: Induction of autophagy in human BxPC3 cells assessed as increase in LC3-2 protein expression at 20 uM after 48 hrs in presence of autophagy inhibitor bafilomycin A1 by Western blot analysis; format: functional, cell-based
[28] = test system: BXPC-3; assay: Induction of autophagy in human BxPC3 cells assessed as increase in LC3-2 protein expression at 20 uM after 48 hrs in presence of autophagy inhibitor 3-MA by Western blot analysis; format: functional, cell-based
[29] = test system: BXPC-3; assay: Induction of apoptosis in human BxPC3 cells assessed as accumulation at sub-G0/G1 phase at 20 uM after 48 hrs in presence of autophagy inhibitor 3-MA by propidium iodide staining based flow cytometry; format: functional, cell-based
[30] = test system: PK9; assay: Induction of apoptosis in human PK9 cells harboring BECN1 shRNA at 20 uM after 24 hrs by Annexin V/7-AAD staining based flow cytometry; format: functional, cell-based
[31] = test system: PK9; assay: Induction of apoptosis in human PK9 cells harboring ATG7 shRNA at 20 uM after 24 hrs by Annexin V/7-AAD staining based flow cytometry; format: functional, cell-based
[32] = test system: BXPC-3; assay: Growth inhibition of human BxPC3 cells after 72 hrs by XTT assay; format: functional, cell-based; settings: BXPC-3, 72 h
[33] = test system: PANC-1; assay: Growth inhibition of human PANC1 cells after 72 hrs by XTT assay; format: functional, cell-based; settings: PANC-1, 72 h

Row | SMILES | Activity [6] [%] | Activity [7] [%] | Activity [8] [%] | Activity [9] [%] | Activity [11] [%] | Activity [12] [%] | Activity [15] [%] | Activity [16] [%] | Activity [17] [%] | Activity [18] [%] | Activity [19] [%] | Activity [20] [%] | Activity [21] [%] | Activity [22] [%] | Activity [23] [%] | Activity [24] | Activity [25] | Activity [26] | Activity [29] | also measured
1 | CCCCCC/C=C\CCCCCCCCOC[C@H]1NC[C@H](O)[C@@H]1O | 2.8 | 14.5 | 28.6 | 81.7 | 6.7 | 7.1 | 20.8 | 4.1 | 6.1 | 7.9 | 8.7 | 9.5 | 23.9 | 4.4 | 44.69 | Active | inactive | Active | Active | IC50 [1]: 6 µM; IC50 [2]: 9 µM; IC50 [3]: 3 µM; IC50 [4]: 2 µM; IC50 [5]: 1 µM; Activity [10]: Tde; Activity [13]: Tde; Activity [14]: Tde; Activity [27]: Active; Activity [28]: inactive; Activity [30]: Active; Activity [31]: Active
2 | CCCCCCCCCCCCCCCCCCOCC(COP(=O)([O-])OCC[N+](C)(C)C)OC (configuration not stated) [EDELFOSINE] | 3 | 16.2 | 15.6 | 8.2 | 3.2 | 11.5 | 24.3 | 2.6 | 8 | 5.2 | 7.2 | 8.7 | 1.9 | 2.49 | 45.92 | Active | inactive | Active | Active | IC50 [32]: 18.8 µM; IC50 [33]: 25.7 µM
